Earlier results on three compounds are cited in paper PMC8319603, “Developing C2-Aroyl Indoles as Novel Inhibitors of IDO1 and Understanding Their Mechanism of Inhibition via Mass Spectroscopy, QM/MM Calculations and Molecular Dynamics Simulation” (Frontiers in Chemistry, 2021).

One series relates to SKOV3. On the set-up: method as in Siu et al., 2017; Wen et al., 2019. The note with it: Figure 1; ref Siu et al., 2017; Wen et al., 2019; cited from earlier work.
The next series relates to hIDO1. Conditions: 2017, cited from earlier work.
A further series relates to HeLa. The note with it: Figure 1; ref Prendergast et al., 2017; cited from earlier work.

Like-named read-outs stand apart in the source and are kept apart here.

What is called IC50 is the concentration needed to halve the response being measured. Regarding `O=C1CC(c2c[nH]c3ccc(F)cc23)C(=O)N1` (centres unmarked) [1d], the 50% inhibitory concentration (IC50) with SKOV3 was 70 nM; in the series with hIDO1 (Figure 1, ref Siu et al., Wen et al., 2019, read-out: IC50 (IDO1)) it was […].

Turning to `C[C@@H](C(=O)Nc1ccc(Cl)cc1)C1CCC(c2ccnc3ccc(F)cc23)CC1` (some centres unmarked) [1e], the IC50 in the series with SKOV3 is 3.4 nM. `NS(=O)(=O)NCCNc1nonc1C(=NO)Nc1ccc(F)c(Br)c1` [1b]: the IC50 with HeLa is 1.5 nM; in the series on hIDO1 (ref Prendergast et al., read-out: IC50 against IDO1) it was […].
